In US4874773A, “3-Aminocarbonyl-1,4-dihydropyridine-5-carboxylic acid compounds, and pharmaceutical composition containing the same” (priority 1985, dated 1989):
pEC50: −log10 of the molar value. “Also recorded” adds a separate entry of the source. Read-outs that look alike come from different tables or passages of the source.

Key:
[1] = tested on: Spontaneously hypertensive male rats; experiment: Experiment 1-2 Hypotensive activity (oral, 8 hours); type: in vivo, rat
Experimental: Spontaneously hypertensive male rats (13-15 week age, one group: 3 rats) were used. […] The rats were fixed in a Howlman cage without fasting, and the femoral arterial pressure was measured by a direct method without anesthesia with a cannula which was previously inserted into the femoral artery of the animal, via a pressure transducer (MPU-0.5, manufactured by Nippon Koden K.K.). The test compounds were orally administered in the form of a suspension in 0.5% methyl cellulose solution in a dose of 10 mg/kg (in some compounds, 3 mg/kg). In the control group, only 0.5% methyl cellulose solution was administered likewise. The blood pressure was measured for 5 hours after the administration of test compounds.
The hypotensive activity was measured in the same manner as described in Experiment 1-1 except that the rats were used in 3-5 rats per each group, and the test compounds were administered in a dose of 1 mg/kg (some compounds, 3 mg/kg), and the blood pressure was measured for 8 hours after the administration of test compounds.

isolated heart = experiment: Experiment 2-2 Activity onto the isolated heart (with duration); parameters: species or system Japanese white rabbit; details: 3 μg/heart
Experimental: Japanese white rabbit (weighing 2.2-2.5 kg) was anesthetized by introvenous injection of nembutal (20 mg/kg) and then sacrificed by bleeding from common carotid artery. […] There were measured the perfusion volume with a drop-counting meter (ET-600G type, manufactured by Nippon Koden K.K.) and the heart pulse and the contractility via a force-displacement transducer (FD pick up, SB-IT type, manufactured by Nippon Koden K.K.) (for measuring heart pulse, an instant pulse meter (AT-601G type, minufactured by Nippon Koden K.K.) being further used).
The test compounds were dissolved in ethanol, and the solution was diluted in 100-fold with purified water, and the diluted solution was administered in an amount of 0.1 ml/heart (i.e. 3 μg/heart).
The activity was measured in the same manner as described in Experiment 2-1 except that in some test compounds, the dose was in 1 μg/heart. Besides, the duration of the activity was evaluated by counting the time until the coronary perfusion volume became to the initial level before the administration of the test compound.

isolated aorta = experiment: Experiment 3 Relaxing activity on the isolated aorta (30 mM KCl contracted); parameters: species or system Japanese white rabbit
Experimental: Japanese white rabbit (weighing 2.3-2.7 kg) was sacrificed by bleeding from common carotid artery. Immediately, the aorta was isolated and cut into a sprial strip. The strip preparation was vertically suspended under a resting tension of 2.0 g in a tissue bath containing 20 ml of modified Ringer solution while bubbling with a mixture of 95% O2 +5% CO2 by connecting one end of the strip to a lever of the above-mentioned FD pick up. The aortic strip was contracted with 30 mM KCl. When the contraction became constant, the test compound was accumulatively administered, and the relaxing effect was measured. After the final treatment, 10^-4T M papaverine was administered and the maximum relaxation obtained thereby was taken as 100%. In comparison with the maximum relaxation obtained by papaverine, the rate of relaxation by the test compounds was evaluated, and the concentration of the test compounds for obtaining 50% relaxation (EC50) was calculated.
The test compound was dissolved in ethanol, and the solution was diluted in 100 to 1×10^4 folds with a nutrient solution, and the diluted solution was administered.

[2] = Experiment 4-2 Acute toxicity, rats; details: rat, in vivo, po, 4 week age, 7 days
From the text: (§1) Wistar male and female rats (4 week age) and ddy male and female mice (4 week age) were used. The compounds of Example Nos. 82 and 83 were each orally administered to […].

[3] = Experiment 4-2 Acute toxicity, mice; details: mouse, in vivo, po, 4 week age, 7 days
From the text: as §1

## CCCCCCCCOC(=O)C1=C(C)NC(C)=C(C(=O)NC2CC2)C1c1ccccc1[N+](=O)[O-] (stereo not drawn) [Example 82, n-octyl 2,6-dimethyl-3-cyclopropylaminocarbonyl-4-(o-nitrophenyl)-1,4-dihydropyridine-5-carboxylate]
[1]; 1 mg/kg oral
  Maximum hypotension: 48 mmHg
  Recovering time: > 8.0 h
  Time for recovering 1/2 of max. hypotension: > 8.0 h
  Time until reaching to max. hypotension: 180 min
[1]; Table 5, comparison with nifedipine and nicardipine hydrochloride where stated
  hypotensive activity (in words): the same or more potent hypotensive activity with longer duration; also recorded: potent hypotensive activity
Isolated heart; time until perfusion volume returned to initial level
  Coronary perfusion Duration: > 120 min
Isolated heart; Oryctolagus cuniculus, read-out: Coronary perfusion Increase
  activation at 3 µg/heart: 39%
Isolated heart; Oryctolagus cuniculus, read-out: Inhibitory rate of systole
  inhibition at 3 µg/heart: 30%
Isolated heart; Oryctolagus cuniculus, read-out: Reducing rate of heart pulse
  inhibition at 3 µg/heart: 25%
Isolated aorta; Oryctolagus cuniculus, 30 mM KCl contraction, maximum relaxation by papaverine = 100%, read-out: EC50 (concentration for 50% relaxation)
  pEC50: 6.36
Isolated aorta; Table 8, comparison with nifedipine and nicardipine hydrochloride, etc. where stated
  relaxing / vasodilating activity on isolated aorta (in words): somewhat weak vasodilating activity
[2]; female rats
  LD50 at 168 h: 50 mg/kg
[2]; male rats
  LD50 at 168 h: 320 mg/kg
[3]; female mice
  LD50 at 168 h: 1140 mg/kg
[3]; male mice
  LD50 at 168 h: 1280 mg/kg
